Measurements: ChEMBL document CHEMBL5715937, “In vitro activity of Bcr-Abl inhibitors AMN107 and BMS-354825 against clinically relevant imatinib-resistant Abl kinase domain mutants” (Cancer Res, 2005)
Activity calls are given as the source filed them. The rule behind the calls is not given here.

How the values were obtained:
[1] = tested on: BaF3; experiment: Induction of apoptosis in mouse BaF3 cells expressing Bcr-Abl V379l mutant at 30 to 300 nM incubated for 72 hrs by Annexin V-phycoerythrin and 7-amino-actinomycin D staining based PCA instrument analysis; assay type: functional, cell-based; details: dose 30-300 nM
[2] = tested on: BaF3; experiment: Induction of apoptosis in mouse BaF3 cells expressing Bcr-Abl L387M mutant at 30 to 300 nM incubated for 72 hrs by Annexin V-phycoerythrin and 7-amino-actinomycin D staining based PCA instrument analysis; assay type: functional, cell-based; details: dose 30-300 nM
[3] = Cytotoxicity against mouse BaF3 cells assessed as reduction in cell proliferation incubated for 72 hrs by […] CellTiter96 viability analysis; assay type: toxicity
[4] = tested on: BaF3; experiment: Induction of apoptosis in mouse BaF3 cells expressing Bcr-Abl Q252H mutant assessed as increase in apoptotic cells at 1500 nM incubated for 72 hrs by Annexin V-phycoerythrin and 7-amino-actinomycin D staining based PCA instrument analysis relative to control; assay type: functional
[5] = cells; details: Mus musculus, BaF3, 3 h
[6] = tested on: BaF3; experiment: Induction of apoptosis in mouse BaF3 cells expressing Bcr-Abl G250E mutant at 30 to 300 nM incubated for 72 hrs by Annexin V-phycoerythrin and 7-amino-actinomycin D staining based PCA instrument analysis; assay type: functional, cell-based; details: dose 30-300 nM
[7] = tested on: BaF3; experiment: Induction of apoptosis in mouse BaF3 cells expressing Bcr-Abl Q252H mutant at 30 to 300 nM incubated for 72 hrs by Annexin V-phycoerythrin and 7-amino-actinomycin D staining based PCA instrument analysis; assay type: functional, cell-based; details: dose 30-300 nM
[8] = Inhibition of BCR-ABL M244V mutant (unknown origin) expressed in mouse BaF3 cells assessed as inhibition of cell growth incubated for 72 hrs by […] CellTiter96 viability analysis; details: BaF3, time 72 hrs, condition chronic myelogenous leukemia
[9] = cells; details: Mus musculus, BaF3, 3 h; remark: listed apart in the source
[10] = Inhibition of BCR-ABL V379l mutant (unknown origin) expressed in mouse BaF3 cells assessed as inhibition of cell growth incubated for 72 hrs by […] CellTiter96 viability analysis
[11] = Inhibition of BCR-ABL G250E mutant (unknown origin) expressed in mouse BaF3 cells assessed as inhibition of cell growth incubated for 72 hrs by […] CellTiter96 viability analysis
[12] = cells; details: Mus musculus, BaF3, 3 h; remark: listed apart in the source
[13] = Inhibition of BCR-ABL L387M mutant (unknown origin) expressed in mouse BaF3 cells assessed as inhibition of cell growth incubated for 72 hrs by […] CellTiter96 viability analysis; details: BaF3, time 72 hrs, condition chronic myelogenous leukemia
[14] = Inhibition of BCR-ABL F359V mutant (unknown origin) expressed in mouse BaF3 cells assessed as inhibition of cell growth incubated for 72 hrs by […] CellTiter96 viability analysis
[15] = tested on: BaF3; experiment: Induction of apoptosis in mouse BaF3 cells expressing Bcr-Abl G250E mutant assessed as increase in apoptotic cells at 1500 nM incubated for 72 hrs by Annexin V-phycoerythrin and 7-amino-actinomycin D staining based PCA instrument analysis relative to control; assay type: functional
[16] = cells; details: Mus musculus, BaF3, 3 h; remark: listed apart in the source
[17] = tested on: BaF3; experiment: Induction of apoptosis in mouse BaF3 cells expressing Bcr-Abl F317L mutant assessed as increase in apoptotic cells at 1500 nM incubated for 72 hrs by Annexin V-phycoerythrin and 7-amino-actinomycin D staining based PCA instrument analysis relative to control; assay type: functional
[18] = cells; details: Mus musculus, BaF3, 3 h; remark: listed apart in the source
[19] = cells; details: Mus musculus, BaF3, 3 h; remark: listed apart in the source
[20] = Inhibition of BCR-ABL H396P mutant (unknown origin) expressed in mouse BaF3 cells assessed as inhibition of cell growth incubated for 72 hrs by […] CellTiter96 viability analysis
[21] = tested on: BaF3; experiment: Induction of apoptosis in mouse BaF3 cells expressing Bcr-Abl F311L mutant assessed as increase in apoptotic cells at 1500 nM incubated for 72 hrs by Annexin V-phycoerythrin and 7-amino-actinomycin D staining based PCA instrument analysis relative to control; assay type: functional
[22] = tested on: BaF3; experiment: Induction of apoptosis in mouse BaF3 cells expressing Bcr-Abl Y253H mutant at 30 to 300 nM incubated for 72 hrs by Annexin V-phycoerythrin and 7-amino-actinomycin D staining based PCA instrument analysis; assay type: functional, cell-based; details: dose 30-300 nM
[23] = Inhibition of BCR-ABL E255K mutant (unknown origin) expressed in mouse BaF3 cells assessed as inhibition of cell growth incubated for 72 hrs by […] CellTiter96 viability analysis
[24] = tested on: BaF3; experiment: Induction of apoptosis in mouse BaF3 cells expressing Bcr-Abl F311L mutant at 30 to 300 nM incubated for 72 hrs by Annexin V-phycoerythrin and 7-amino-actinomycin D staining based PCA instrument analysis; assay type: functional, cell-based; details: dose 30-300 nM
[25] = tested on: BaF3; experiment: Induction of apoptosis in mouse BaF3 cells expressing Bcr-Abl H396P mutant at 30 to 300 nM incubated for 72 hrs by Annexin V-phycoerythrin and 7-amino-actinomycin D staining based PCA instrument analysis; assay type: functional, cell-based; details: dose 30-300 nM
[26] = cells; details: Mus musculus, BaF3, 3 h; remark: listed apart in the source
[27] = tested on: BaF3; experiment: Induction of apoptosis in mouse BaF3 cells expressing Bcr-Abl F317L mutant at 30 to 300 nM incubated for 72 hrs by Annexin V-phycoerythrin and 7-amino-actinomycin D staining based PCA instrument analysis; assay type: functional, cell-based; details: dose 30-300 nM
[28] = Inhibition of BCR-ABL Q252H mutant (unknown origin) expressed in mouse BaF3 cells assessed as inhibition of cell growth incubated for 72 hrs by […] CellTiter96 viability analysis
[29] = tested on: BaF3; experiment: Induction of apoptosis in mouse BaF3 cells expressing Bcr-Abl E255K mutant at 30 to 300 nM incubated for 72 hrs by Annexin V-phycoerythrin and 7-amino-actinomycin D staining based PCA instrument analysis; assay type: functional, cell-based; details: dose 30-300 nM
[30] = tested on: BaF3; experiment: Induction of apoptosis in mouse BaF3 cells expressing Bcr-Abl T315l mutant assessed as increase in apoptotic cells at 1500 nM incubated for 72 hrs by Annexin V-phycoerythrin and 7-amino-actinomycin D staining based PCA instrument analysis relative to control; assay type: functional
[31] = Inhibition of BCR-ABL L387M mutant (unknown origin) expressed in mouse BaF3 cells assessed as inhibition of tyrosine phosphorylation incubated for 3 hrs by immunoblotting analysis; assay type: cell-based; details: BaF3, 3 h
[32] = Inhibition of BCR-ABL V379l mutant (unknown origin) expressed in mouse BaF3 cells assessed as inhibition of tyrosine phosphorylation incubated for 3 hrs by immunoblotting analysis; assay type: cell-based; details: BaF3, 3 h
[33] = tested on: BaF3; experiment: Induction of apoptosis in mouse BaF3 cells expressing Bcr-Abl M351T mutant at 30 to 300 nM incubated for 72 hrs by Annexin V-phycoerythrin and 7-amino-actinomycin D staining based PCA instrument analysis; assay type: functional, cell-based; details: dose 30-300 nM
[34] = BaF3, time 72 hrs, condition chronic myelogenous leukemia

- IC50 [5]: 0.043 µM
- IC50 [9]: 0.022 µM
- IC50 [12]: 0.007 µM
- IC50 [16]: 0.055 µM
- IC50 [18]: 0.047 µM
- IC50 [19]: 0.155 µM
- IC50 [26]: 0.015 µM
- IC50 [31]: 0.033 µM
- IC50 [32]: 0.015 µM
Structure (SMILES): Cc1cn(-c2cc(NC(=O)c3ccc(C)c(Nc4nccc(-c5cccnc5)n4)c3)cc(C(F)(F)F)c2)cn1 [NILOTINIB]
- Activity [1]: Active
- Activity [2]: Active
- IC50 at 72 h [3]: > 2 µM
- Activity [4]: >90%
- Activity [6]: Active
- Activity [7]: Active
- IC90 [8]: 0.056 µM
- IC50 ([10]; BaF3, 72 h): 0.051 µM
- IC90 [10, 34]: 0.115 µM
- IC50 ([11]; BaF3, 72 h): 0.048 µM
- IC90 [11, 34]: 0.152 µM
- IC90 [13]: 0.115 µM
- IC50 ([14]; BaF3, 72 h): 0.175 µM
- IC90 [14, 34]: 0.385 µM
- Activity [15]: >90%
- Activity [17]: >90%
- IC50 ([20]; BaF3, 72 h): 0.041 µM
- IC90 [20, 34]: 0.069 µM
- Activity [21]: >90%
- Activity [22]: Active
- IC50 ([23]; BaF3, 72 h): 0.2 µM
- IC90 [23, 34]: 0.415 µM
- Activity [24]: Active
- Activity [25]: Active
- Activity [27]: Active
- IC50 ([28]; BaF3, 72 h): 0.07 µM
- IC90 [28, 34]: 0.156 µM
- Activity [29]: Active
- Activity [30]: 3%
- Activity [33]: Active
